Assay results taken from US20210361768A1, “METHODS AND MATERIALS FOR ASSESSING AND TREATING CANCERS” (Mayo Foundation for Medical Education and Research, priority 2018, published 2021).

System: HER2-positive breast cancer
Experiment: NeoALTTO trial: pathologic complete response and event-free survival by treatment arm and adaptive immune signature (AIS) status
Assay type: in vivo, human
Details: NeoALTTO patients
[1] = AIS deficient, listed as lapatinib

With `CS(=O)(=O)CCNCc1ccc(-c2ccc3ncnc(Nc4ccc(OCc5cccc(F)c5)c(Cl)c4)c3c2)o1` [Lapatinib, lapatinib] the “%6-yr EFS (6-year Event Free Survival rate)” value (AIS deficient) was 68%, the “% pCR (complete pathological response rate)” value (AIS deficient) was 17% and the “%6-yr EFS (6-year Event Free Survival rate)” value [1] was 68%. For the same compound, the “% pCR (complete pathological response rate)” value [1] was 17%, the “%6-yr EFS (6-year Event Free Survival rate)” value (AIS enrich) was 65% and the “% pCR (complete pathological response rate)” value (AIS enrich) was 21%.
